Source: patent US8748436B2, “Carboxylic acid derivatives having a 2,5,7-substituted oxazolopyrimidine ring” (Sanofi, priority 2010, dated 2014)

Molecular target: T1, human Edg-1 receptor (Homo sapiens, UniProt P21453)
T1 construct: FLAG (N); expressed in transfected cells; membrane preparation
Test: GTP-γ-S assay using human Edg-1 receptors (scintillation proximity assay, CHO Flp-In cell membrane preparation)
Assay type: biochemical
Settings: test compound at 10 μM, high control 10 μM S1P regarded as 100% activation, [35S]GTP-γ-S binding, triplicate; for activation at 10 µM: read-out: % Activation (Edg-1 receptor activation in percent of the activation by 10 μM S1P)
Excerpt: A) GTP-γ-S Assay Using Human Edg-1 Receptors
In order to determine the Edg-1 receptor activation by the compounds of the invention, a GTP-γ-S (guanosine 5′-[thio]triphosphate) assay for G-protein coupled receptor binding based on the scintillation proximity assay principle was used, employing a cell membrane preparation from a CHO Flp-In cell line which constitutively overexpresses the human Edg-1 receptor.
The Flp-In™ expression system (Invitrogen, cat. no. K6010-01) allows the generation of stable mammalian cell lines into which the gene of interest has been integrated through homologous recombination at a specific genomic location called Flp Recombination Target (FRT) site by means of a Flp recombinase encoded by the pOG44 expression plasmid. The integration of the pcDNA5/FRT expression construct into the Flp-In host cell line genome results in the transcription of the gene of interest. The stably transfected cells become hygromycin-resistant.
One day prior to transfection, 200 000 Flp-In-CHO cells were seeded in Ham F-12 medium (Invitrogen, cat. no. 31765) supplemented with 10% fetal calf serum (FCS; Perbio Science, cat. no. SH30068.03) in a 6-well plate and incubated at 37° C./5% CO2 overnight. Using the FuGENE® 6 transfection reagent (Roche, cat. no. 11988387001), cells were cotransfected with the Flp recombinase expression plasmid pOG44 and a modified plasmid additionally containing the edg-1 gene (accession no. NM_001400) termed as pcDNA5-FRT-TO_nFLAG_DEST-EDG-1 with a 9:1 ratio. To obtain the modified pcDNA5-FRT-TO_nFLAG_DEST plasmid, the Invitrogen plasmid pcDNA5/FRT/TO (Invitrogen, cat. no. V6520-20) was adapted to the Gateway® (Invitrogen) cloning system by inserting a Gateway cassette containing attR recombination sites flanking a ccdB gene and a chloramphenicol-resistance gene (Gateway conversion system, Invitrogen, cat. no. 11828-029). In addition a FLAG tag epitope was added before the 5′ att recombination site to allow recombinant expression of N-terminally FLAG-tagged proteins.
For the transfection of one well, 1.08 μg of pOG44 and 0.12 μg of pcDNA5-FRT-TO_nFLAG_DEST-EDG-1 were mixed to 100 μl of serum-free Ham F-12 medium containing 6 μl of FuGENE® 6 transfection reagent. After 20 min of incubation, the transfection reagent/DNA complex was distributed dropwise on the cells. The cells were incubated for 24 h at 37° C. Then the cells from 3 wells were transferred to a T75 flask (Greiner Cellstar®, cat. no. 658175) containing Ham F-12 medium supplemented with 10% of FCS but without antibiotic and were incubated another 24 h. 48 h after transfection, the medium was replaced by selection medium (Ham F-12 supplemented with 10% of FCS and 300 μg/ml of hygromycin B (Invitrogen, cat. no. 10687-010)). The medium was exchanged every 2 to 3 days until a resistant population of cells had grown. […] After 2 weeks of selection, the cells were transferred into T175 flasks (Greiner Cellstar®, cat. no. 660175) and cultivated for batch production. Cells were harvested from the culture flasks by short treatment (2 to 5 min) with Accutase (PAA, cat. no. L11-007), resuspended in selection medium (see above) and centrifuged at 200×g for 5 min. The cells were resuspended in a mixture of 90% of FCS and 10% of dimethylsulfoxide and stored frozen in liquid nitrogen.
A membrane preparation was obtained by standard methods from the afore-described CHO Flp-In cell line constitutively overexpressing the human Edg-1 receptor. Briefly, the cryopreserved cells were taken in culture and grown until confluency in T175 cell culture flasks (Becton Dickinson, cat. no. 35 5001). […]

T1 sequence (P21453 whole entry): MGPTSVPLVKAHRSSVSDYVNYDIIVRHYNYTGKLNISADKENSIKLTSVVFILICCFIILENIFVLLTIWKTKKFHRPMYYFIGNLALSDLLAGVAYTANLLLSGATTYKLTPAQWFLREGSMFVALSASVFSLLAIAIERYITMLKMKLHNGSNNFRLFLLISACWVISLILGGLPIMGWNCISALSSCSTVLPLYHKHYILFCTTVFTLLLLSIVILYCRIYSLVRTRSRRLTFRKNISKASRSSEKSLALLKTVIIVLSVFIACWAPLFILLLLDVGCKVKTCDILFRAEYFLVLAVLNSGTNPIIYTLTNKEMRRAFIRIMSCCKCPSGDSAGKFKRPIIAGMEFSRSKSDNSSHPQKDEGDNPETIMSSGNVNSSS

activation at 10 µM [%] | Compound | % Activation (Edg-1 receptor activation in percent of the activation by 10 μM S1P) [%]
 | CCCOc1nc(Oc2cccc(F)c2)nc2oc(-c3cc(C)c(OCC(=O)O)c(C)c3)nc12 [Example 34, {4-[5-(3-fiuorophenoxy)-7-propoxy-oxazolo[5,4-d]pyrimidin-2-yl]-2,6-dimethyl-phenoxy}-acetic acid] | 48
109 | CCCOc1nc(Oc2ccsn2)nc2oc(-c3cc(C)c(OCC(=O)O)c(C)c3)nc12 [Example 27, {4-[5-(isothiazol-3-yloxy)-7-propoxy-oxazolo[5,4-d]pyrimidin-2-yl]-2,6-dimethylphenoxy}-acetic acid] | 
107 | CCCOc1nc(OCCC(F)(F)F)nc2oc(-c3cc(C)c(OCC(=O)O)c(C)c3)nc12 [Example 16, {2,6-dimethyl-4-[7-propoxy-5-(3,3,3-trifluoro-propoxy)-oxazolo[5,4-d]pyrimidin-2-yl]-phenoxy}-acetic acid] | 
62 | CCCOc1nc(Oc2ccccc2OC(F)(F)F)nc2oc(-c3cc(C)c(OCC(=O)O)c(C)c3)nc12 [Example 71, {2,6-dimethyl-4-[7-propoxy-5-(2-trifluoromethoxyphenoxy)-oxazolo[5,4-d]pyrimidin-2-yl]-phenoxy}-acetic acid] | 
43 | CCCOc1nc(Oc2ccc(C)cc2F)nc2oc(-c3cc(C)c(OCC(=O)O)c(C)c3)nc12 [Example 44, {4-[5-(2-fluoro-4-methylphenoxy)-7-propoxy-oxazolo[5,4-d]pyrimidin-2-yl]-2,6-dimethylphenoxy}-acetic acid] | 
72 | CCCOc1nc(Oc2ccc(C)cc2)nc2oc(-c3cc(C)c(OCC(=O)O)c(C)c3)nc12 [Example 31, [2,6-dimethyl-4-(7-propoxy-5-(4-methylphenoxy)-oxazolo[5,4-d]pyrimidin-2-yl)-phenoxy]-acetic acid] | 
105 | CCCOc1nc(Oc2cc(F)ccc2Cl)nc2oc(-c3cc(C)c(OCC(=O)O)c(C)c3)nc12 [Example 65, {4-[5-(2-chloro-5-fluorophenoxy)-7-propoxy-oxazolo[5,4-d]pyrimidin-2-yl]-2,6-dimethylphenoxy}-acetic acid] | 
59 | CCCOc1nc(Oc2cc(F)cc(Cl)c2)nc2oc(-c3cc(C)c(OCC(=O)O)c(C)c3)nc12 [Example 60, {4-[5-(3-chloro-5-fluorophenoxy)-7-propoxy-oxazolo[5,4-d]pyrimidin-2-yl]-2,6-dimethyl-phenoxy}-acetic acid] | 
49 | CCCOc1nc(Oc2ccc(F)c(F)c2)nc2oc(-c3cc(C)c(OCC(=O)O)c(C)c3)nc12 [Example 51, {4-[5-(3,4-difluorophenoxy)-7-propoxy-oxazolo[5,4-d]pyrimidin-2-yl]-2,6-dimethylphenoxy}-acetic acid] | 
72 | CCCOc1nc(Oc2ccc(Cl)c(C(F)(F)F)c2)nc2oc(-c3cc(C)c(OCC(=O)O)c(C)c3)nc12 [Example 78, {4-[5-(4-chloro-3-trifluoromethylphenoxy)-7-propoxy-oxazolo[5,4-d]pyrimidin-2-yl]-2,6-dimethylphenoxy}-acetic acid] | 
61 | CCCOc1nc(Oc2ccc(F)c(C(F)(F)F)c2)nc2oc(-c3cc(C)c(OCC(=O)O)c(C)c3)nc12 [Example 74, {4-[5-(4-fluoro-3-trifluoromethylphenoxy)-7-propoxy-oxazolo[5,4-d]pyrimidin-2-yl]-2,6-dimethyl-phenoxy}-acetic acid] | 
87 | CCCOc1nc(Oc2cccnc2)nc2oc(-c3cc(C)c(OCC(=O)O)c(C)c3)nc12 [Example 7, {2,6-dimethyl-4-[7-propoxy-5-(pyridin-3-yloxy)-oxazolo[5,4-d]pyrimidin-2-yl]-phenoxy}-acetic acid] | 
84 | CCCOc1nc(Oc2ccccc2)nc2oc(-c3cc(C)c(OCC(=O)O)c(C)c3)nc12 [Example 9, [2,6-dimethyl-4-(5-phenoxy-7-propoxy-oxazolo[5,4-d]pyrimidin-2-yl)-phenoxy]-acetic acid] | 
67 | CCCOc1nc(Oc2cccc(Cl)c2F)nc2oc(-c3cc(C)c(OCC(=O)O)c(C)c3)nc12 [Example 63, {4-[5-(3-chloro-2-fluorophenoxy)-7-propoxy-oxazolo[5,4-d]pyrimidin-2-yl]-2,6-dimethyl-phenoxy}-acetic acid] | 
58 | CCCOc1nc(Oc2ccc3ccccc3c2)nc2oc(-c3cc(C)c(OCC(=O)O)c(C)c3)nc12 [Example 57, {2,6-dimethyl-4-[5-(naphthalen-2-yloxy)-7-propoxy-oxazolo[5,4-d]pyrimidin-2-yl]-phenoxy}-acetic acid] | 
 | CCCOc1nc(OC(C)CC(F)(F)F)nc2oc(-c3cc(C)c(OCC(=O)O)c(C)c3)nc12 (stereo not drawn) [Example 21, {2,6-dimethyl-4-[7-propoxy-5-(3,3,3-trifluoro-1-methyl-propoxy)-oxazolo[5,4--d]pyrimidin-2-yl]-phenoxy}-acetic acid] | 81
78 | CCCOc1nc(Oc2cc(Cl)ccc2C)nc2oc(-c3cc(C)c(OCC(=O)O)c(C)c3)nc12 [Example 56, {4-[5-(5-chloro-2-methylphenoxy)-7-propoxy-oxazolo[5,4-d]pyrimidin-2-yl]-2,6-dimethyl-phenoxy}-acetic acid] | 
85 | CCCOc1nc(OC(C)C(F)(F)F)nc2oc(-c3cc(C)c(OCC(=O)O)c(C)c3)nc12 (stereo not drawn) [Example 24, {2,6-dimethyl-4-[7-propoxy-5-(2,2,2-trifluoro-1-methyl-ethoxy)-oxazolo[5,4-d]pyrimidin-2-yl]-phenoxy}-acetic acid] | 
86 | CCCOc1nc(Oc2cccc(Cl)c2)nc2oc(-c3cc(C)c(OCC(=O)O)c(C)c3)nc12 [Example 10, {4-[5-(3-chloro-phenoxy)-7-propoxy-oxazolo[5,4-d]pyrimidin-2-yl]-2,6-dimethyl-phenoxy}-acetic acid] | 
83 | CCCOc1nc(OCC2CCCC2)nc2oc(-c3cc(C)c(OCC(=O)O)c(C)c3)nc12 [Example 18, [4-(5-cyclopentylmethoxy-7-propoxy-oxazolo[5,4-d]pyrimidin-2-yl)-2,6-dimethyl-phenoxy]-acetic acid] | 
114 | CCCOc1nc(Oc2ccc(C)nc2)nc2oc(-c3cc(C)c(OCC(=O)O)c(C)c3)nc12 [Example 32, {2,6-dimethyl-4-[5-(6-methylpyridin-3-yloxy)-7-propoxy-oxazolo[5,4-d]pyrimidin-2-yl]-phenoxy}-acetic acid] | 
 | CCCOc1nc(Oc2ccc(F)cc2)nc2oc(-c3cc(C)c(OCC(=O)O)c(C)c3)nc12 [Example 35, {4-[5-(4-fiuorophenoxy)-7-propoxy-oxazolo[5,4-d]pyrimidin-2-yl]-2,6-dimethylphenoxy}-acetic acid] | 79
84 | CCCOc1nc(OCC2CCCO2)nc2oc(-c3cc(C)c(OCC(=O)O)c(C)c3)nc12 (stereo not drawn) [Example 19, {2,6-dimethyl-4-[7-propoxy-5-(tetrahydrofuran-2-ylmethoxy)-oxazolo[5,4-d]pyrimidin-2-yl]-phenoxy}-acetic acid] | 
82 | CCCOc1nc(Oc2cccc(C(F)(F)F)c2)nc2oc(-c3cc(C)c(OCC(=O)O)c(C)c3)nc12 [Example 67, {2,6-dimethyl-4-[7-propoxy-5-(3-trifluoromethylphenoxy)-oxazolo[5,4-d]pyrimidin-2-yl]-phenoxy}-acetic acid] | 
